A word on the IC50: it is the concentration at which inhibition is half-maximal.

The nature of data set [1]: Cytotoxicity against human L02 cells assessed as cell viability incubated for 48 hrs by MTT assay. Type of data set: toxicity, cell-based.
A short description of data set [2]: Cytotoxicity against human HEK293T cells assessed as cell viability incubated for 48 hrs by MTT assay. Type of data set: toxicity, cell-based, HEK-293T. Background: Tetrazolium dyes change colour on reduction, which living cells bring about.
For data set [3], the system named is Ca-Ski. Description: Antiproliferative activity against human Ca-Ski cells assessed as cell viability incubated for 48 hrs by MTT assay. The class given is functional, cell-based.
The subject of data set [4] is HeLa. Description: Antiproliferative activity against human HeLa cells assessed as cell viability incubated for 48 hrs by MTT assay. The class given is functional, cell-based.
For data set [5], the system named is SiHa. Description: Antiproliferative activity against human SiHa cells assessed as cell viability incubated for 48 hrs by MTT assay. The class given is functional, cell-based.
Data set [6] relates to SiHa. Description: Induction of apoptosis in human SiHa cells assessed as late apoptotic cells at 16 uM incubated for 24 hr by flow cytometry based annexin V-FITC/PI double-staining analysis (reference value: 8.67%). The class given is functional. (In flow cytometry, cells or beads pass a laser one at a time.)
Data set [7] deals with SiHa. Description: Induction of cell cycle arrest in human SiHa cells assessed as accumulation cells at S phase at 16 uM measured after 24 hrs by flow cytometry (reference value: 14.31%). The class given is functional.
The subject of data set [8] is SiHa. Description: Induction of apoptosis in human SiHa cells assessed as early apoptotic cells at 16 uM incubated for 24 hr by flow cytometry based annexin V-FITC/PI double-staining analysis (reference value: 2.95%). The class given is functional.
A short description of data set [9]: Acute toxicity in AB-wild type zebrafish embryo assessed as malformation rate at 400 uM measured after 96 hrs. On the set-up: species or system Danio rerio. The following applies: in vivo.
The subject of data set [10] is SiHa. Description: Induction of cell cycle arrest in human SiHa cells assessed as accumulation cells at G2/M phase at 16 uM measured after 24 hrs by flow cytometry (reference value: 5.24%). The class given is functional.
Data set [11] is described as follows: Acute toxicity in AB-wild type zebrafish embryo assessed as mortalities at 400 uM measured after 96 hrs. The following applies: in vivo, read-out: Activity. Also on record: species or system Danio rerio.
For data set [12], the system named is SiHa. Description: Induction of cell cycle arrest in human SiHa cells assessed as accumulation cells at G0/G1 phase at 16 uM measured after 24 hrs by flow cytometry (reference value: 80.45%). The class given is functional.

As to `COc1cc(-c2nc3cc(N4CCOCC4)c(C#Cc4ccc(Cl)cc4)cc3[nH]2)cc(OC)c1OC`, the values for the IC50 at 48 h in data set [1] and in [2] were 12.8 µM and 15.9 µM, respectively. The figures for the half-inhibitory concentration (IC50) in data set [3], in data set [4] and in data set [5] were 14.4 µM, 3.23 µM and 20.9 µM, respectively.

As for `COc1cc(OC)c(-c2nc3cc(N4CCOCC4)c(C#Cc4ccccc4F)cc3[nH]2)cc1OC`, the half-maximal inhibitory concentration (IC50) at 48 h in [1] worked out at 9.1 µM; in [2], 4.83 µM. In addition, the values for the IC50 in [3], in data set [4] and in data set [5] were 11.5 µM, 20.1 µM and 27.2 µM, respectively.

`COc1cc(OC)c(-c2nc3cc(N4CCOCC4)c(C#Cc4ccc(Cl)cc4)cc3[nH]2)cc1OC`: the figures for the IC50 at 48 h in data set [1] and in [2] were > 100 µM and 36.1 µM, respectively. The IC50 in data set [3] was > 100 µM; in data set [4], 16.7 µM; in data set [5], > 100 µM.

Consider `COc1cc(OC)c(-c2nc3cc(N4CCN(C)CC4)c(C#Cc4ccccc4Cl)cc3[nH]2)cc1OC`, for which the IC50 at 48 h is 2.04 µM in data set [1] and 4.55 µM in data set [2]. The IC50 in [3] was determined as 5.34 µM; in data set [4], 2.96 µM; in data set [5], 6.07 µM.

`COc1cc(-c2nc3cc(N4CCOCC4)c(C#Cc4ccccc4Cl)cc3[nH]2)cc(OC)c1OC`: the half-inhibitory concentration (IC50) at 48 h was > 100 µM in [1] and 5.37 µM in [2]. Further, the figures for the concentration for half-maximal inhibition (IC50) in [3], in [4] and in [5] were 13.5 µM, 10.4 µM and 7.81 µM, respectively.

For `COc1cc(OC)c(-c2nc3cc(N4CCN(C)CC4)c(C#Cc4ccc(Cl)cc4)cc3[nH]2)cc1OC`, the IC50 at 48 h in [1] is 1.38 µM; in [2], 1.64 µM. Moreover, the values for the 50% inhibitory concentration (IC50) in data set [3], in data set [4] and in data set [5] were > 100 µM, 1.61 µM and 3.03 µM, respectively.

As to `COc1ccc(C#Cc2cc3[nH]c(-c4cc(OC)c(OC)c(OC)c4)nc3cc2N2CCOCC2)cc1`, the 50% inhibitory concentration (IC50) at 48 h amounted to 8.82 µM in data set [1] and 2.18 µM in data set [2]. The half-maximal inhibitory concentration (IC50) was found to be 9.11 µM in data set [3], 3.67 µM in [4] and 26.8 µM in [5].

For the compound `Nc1cc(C(F)(F)F)c(-c2cc(N3CCOCC3)nc(N3CCOCC3)n2)cn1` [BUPARLISIB], the Activity turned out to be 7.83% in [6]; 11.27% in [7]; 10.27% in data set [8]; 0% in [9]; 28.47% in data set [10]; 62.27% in data set [12]. For the same compound, the IC50 at 48 h turned out to be 59.2 µM in data set [1] and 6.11 µM in [2]. For the same compound, the IC50 in data set [3] was found to be 0.74 µM; in data set [4], 9.06 µM; in [5], 11.9 µM. Besides, the mortality at 96 h, 400 µM in data set [11] stood at 0%.

Consider `COc1cc(-c2nc3cc(N4CCN(C)CC4)c(C#Cc4ccccc4Cl)cc3[nH]2)cc(OC)c1OC`, for which the IC50 at 48 h was determined as 1.29 µM in data set [1] and 0.8 µM in data set [2]. The figures for the IC50 in [3], in data set [4] and in data set [5] were 3.15 µM, 1.73 µM and 1.4 µM, respectively.

Consider `COc1cc(-c2nc3cc(N4CCOCC4)c(C#Cc4ccccc4F)cc3[nH]2)cc(OC)c1OC`, for which the concentration for half-maximal inhibition (IC50) at 48 h in [1] came to 6.98 µM; in data set [2] it was 38.6 µM. Besides, the 50% inhibitory concentration (IC50) was 10.7 µM in data set [3], 8.6 µM in [4] and > 100 µM in data set [5].

`COc1cc(OC)c(-c2nc3cc(N4CCN(C)CC4)c(C#Cc4ccccc4)cc3[nH]2)cc1OC`: the 50% inhibitory concentration (IC50) at 48 h is 6.59 µM in [1] and 4.07 µM in data set [2]. The IC50 in data set [3] is > 100 µM; in data set [4] it was 5.25 µM; in data set [5] it was 6.16 µM.

Consider `COc1cc(OC)c(-c2nc3cc(N4CCOCC4)c(C#Cc4ccccc4Cl)cc3[nH]2)cc1OC`, for which the IC50 at 48 h in data set [1] was determined as 18.9 µM; in data set [2] it was 0.68 µM. Besides, the figures for the concentration for half-maximal inhibition (IC50) in data set [3], in [4] and in [5] were 22.5 µM, 16.9 µM and 24.4 µM, respectively.

`COc1cc(-c2nc3cc(N4CCN(C)CC4)c(C#Cc4ccc(C(F)(F)F)cc4)cc3[nH]2)cc(OC)c1OC`: the half-maximal inhibitory concentration (IC50) at 48 h in data set [1] was found to be 2.3 µM; in data set [2], 1.41 µM. Besides, the 50% inhibitory concentration (IC50) was determined as 1.38 µM in [3], 3.13 µM in [4] and 6.54 µM in [5].

In the case of `COc1cc(OC)c(-c2nc3cc(N4CCOCC4)c(C#Cc4ccccc4)cc3[nH]2)cc1OC`, the IC50 at 48 h in [1] was 34.1 µM; in data set [2], 13.2 µM. Moreover, the figures for the half-inhibitory concentration (IC50) in data set [3], in data set [4] and in [5] were 19.5 µM, 19.3 µM and 25.1 µM, respectively.

Consider `COc1cc(-c2nc3cc(N4CCOCC4)c(/C=C/C(=O)N(C)C)cc3[nH]2)cc(OC)c1OC`, for which the IC50 at 48 h is > 100 µM in data set [1] and 2.53 µM in data set [2]. Besides, the figures for the half-inhibitory concentration (IC50) in data set [3], in [4] and in [5] were 48.5 µM, 14.5 µM and > 100 µM, respectively.

Take `COc1cc(OC)c(-c2nc3cc(N4CCOCC4)c(C#Cc4ccc(C(F)(F)F)cc4)cc3[nH]2)cc1OC`: the IC50 at 48 h in data set [1] and in [2] was > 100 µM each time. The half-maximal inhibitory concentration (IC50) is > 100 µM in data set [3], 29.3 µM in [4] and > 100 µM in data set [5].

`COc1cc(-c2nc3cc(N4CCN(C)CC4)c(C#Cc4ccccc4)cc3[nH]2)cc(OC)c1OC`: the half-inhibitory concentration (IC50) at 48 h in [1] was determined as 3.82 µM; in [2], 1.2 µM. The figures for the 50% inhibitory concentration (IC50) in data set [3], in data set [4] and in data set [5] were 4.34 µM, 4.96 µM and 5.05 µM, respectively.

With `COc1cc(-c2nc3cc(N4CCOCC4)c(C#Cc4ccccc4)cc3[nH]2)cc(OC)c1OC`, the figures for the half-inhibitory concentration (IC50) at 48 h in [1] and in [2] were 9.09 µM and 3.73 µM, respectively. Also, the IC50 turned out to be 6.45 µM in data set [3], 8.07 µM in [4] and 7.07 µM in [5].

`COc1cc(-c2nc3cc(N4CCN(C)CC4)c(C#Cc4ccc(Cl)cc4)cc3[nH]2)cc(OC)c1OC`: the half-maximal inhibitory concentration (IC50) at 48 h in data set [1] was found to be 2.07 µM; in [2], 4.12 µM. For the same compound, the figures for the IC50 in [3], in data set [4] and in data set [5] were 3.97 µM, 3.45 µM and 5.49 µM, respectively.

Turning to `COc1ccc(C#Cc2cc3[nH]c(-c4cc(OC)c(OC)c(OC)c4)nc3cc2N2CCN(C)CC2)cc1`, the IC50 at 48 h is 2.29 µM in data set [1] and 0.41 µM in data set [2]. For the same compound, the half-inhibitory concentration (IC50) came out at 1.39 µM in [3], 2.07 µM in data set [4] and 3.13 µM in data set [5].

On to `COc1cc(-c2nc3cc(N4CCOCC4)c(/C=C/C(=O)NC(C)(C)C)cc3[nH]2)cc(OC)c1OC`, for which the half-inhibitory concentration (IC50) at 48 h was 9.92 µM in data set [1] and 11.7 µM in data set [2]. The values for the IC50 in [3], in data set [4] and in data set [5] were 16 µM, 4.21 µM and 17 µM, respectively.

These data come from ChEMBL document CHEMBL5500356, “Design, synthesis, and biological evaluation of novel benzimidazole derivatives as anti-cervical cancer agents through PI3K/Akt/mTOR pathway and tubulin inhibition” (Eur J Med Chem, 2024).
